Measurements reported in paper PMC12586182 (Frontiers in Oncology, 2025).

Key:
Experiment in all cases: Kinase panel profiling at 1 µmol/L (mobility shift assay, Carna)
Format in all cases: biochemical
Settings in all cases: 1 µmol/L of BTK inhibitor
[1] = target: T1, EPHA1 (Homo sapiens, UniProt P21709)
T1 construct: purchased Carna Biosciences
T1 sequence (P21709 26-976): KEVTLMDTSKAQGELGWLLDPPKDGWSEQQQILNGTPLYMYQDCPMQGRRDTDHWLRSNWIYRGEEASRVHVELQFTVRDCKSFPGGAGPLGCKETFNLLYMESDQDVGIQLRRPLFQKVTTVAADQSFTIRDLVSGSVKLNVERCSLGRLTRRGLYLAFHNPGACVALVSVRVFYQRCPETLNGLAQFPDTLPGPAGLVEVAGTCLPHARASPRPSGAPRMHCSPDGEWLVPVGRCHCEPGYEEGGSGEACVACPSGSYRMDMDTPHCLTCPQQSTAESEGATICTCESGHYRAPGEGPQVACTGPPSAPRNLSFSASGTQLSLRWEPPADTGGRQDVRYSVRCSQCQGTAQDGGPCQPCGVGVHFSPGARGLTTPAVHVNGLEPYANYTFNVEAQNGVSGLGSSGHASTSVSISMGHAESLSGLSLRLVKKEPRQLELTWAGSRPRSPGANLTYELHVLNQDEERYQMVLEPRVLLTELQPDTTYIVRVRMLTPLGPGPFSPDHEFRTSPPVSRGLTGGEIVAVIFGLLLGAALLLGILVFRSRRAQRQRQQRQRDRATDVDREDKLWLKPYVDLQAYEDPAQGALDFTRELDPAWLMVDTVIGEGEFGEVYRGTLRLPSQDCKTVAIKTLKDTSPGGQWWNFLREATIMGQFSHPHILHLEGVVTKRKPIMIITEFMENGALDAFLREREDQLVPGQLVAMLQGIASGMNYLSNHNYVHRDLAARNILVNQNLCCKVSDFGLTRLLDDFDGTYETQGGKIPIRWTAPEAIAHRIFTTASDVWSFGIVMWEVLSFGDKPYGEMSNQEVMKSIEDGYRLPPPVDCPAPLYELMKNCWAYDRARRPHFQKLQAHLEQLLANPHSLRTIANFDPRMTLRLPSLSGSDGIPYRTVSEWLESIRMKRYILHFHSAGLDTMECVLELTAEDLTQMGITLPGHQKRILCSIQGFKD

[2] = target: T2, NuaK1 (Homo sapiens, UniProt O60285)
T2 construct: purchased Carna Biosciences
T2 sequence (O60285 1-661): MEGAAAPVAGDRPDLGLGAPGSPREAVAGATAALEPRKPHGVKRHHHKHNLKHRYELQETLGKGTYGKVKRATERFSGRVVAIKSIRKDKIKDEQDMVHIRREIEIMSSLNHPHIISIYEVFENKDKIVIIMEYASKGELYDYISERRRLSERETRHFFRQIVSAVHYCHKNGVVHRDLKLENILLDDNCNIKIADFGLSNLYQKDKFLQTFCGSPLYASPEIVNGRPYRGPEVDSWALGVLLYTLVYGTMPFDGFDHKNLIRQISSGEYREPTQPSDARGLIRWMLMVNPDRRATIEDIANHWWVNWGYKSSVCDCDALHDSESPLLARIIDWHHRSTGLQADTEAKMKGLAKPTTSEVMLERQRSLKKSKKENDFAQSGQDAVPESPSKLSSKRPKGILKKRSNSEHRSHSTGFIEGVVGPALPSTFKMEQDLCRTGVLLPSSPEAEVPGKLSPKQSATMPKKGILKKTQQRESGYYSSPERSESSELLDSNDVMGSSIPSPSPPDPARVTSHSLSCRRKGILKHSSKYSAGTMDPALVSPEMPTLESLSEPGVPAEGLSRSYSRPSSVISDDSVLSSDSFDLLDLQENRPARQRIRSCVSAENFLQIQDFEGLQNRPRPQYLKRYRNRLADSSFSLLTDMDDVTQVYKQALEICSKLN

[3] = target: T3, GSK3α (Homo sapiens, UniProt P49840)
T3 construct: purchased Carna Biosciences

[4] = target: T4, PLK2 (Homo sapiens, UniProt Q9NYY3)
T4 construct: purchased Carna Biosciences

[5] = target: T5, SLK (Homo sapiens, UniProt Q9H2G2)
T5 construct: purchased Carna Biosciences

[6] = target: T6, DYRK1A (Homo sapiens, UniProt Q13627)
T6 construct: purchased Carna Biosciences

[7] = target: T7, IRAK4 (Homo sapiens, UniProt Q9NWZ3)
T7 construct: purchased Carna Biosciences
T7 sequence (Q9NWZ3 1-460): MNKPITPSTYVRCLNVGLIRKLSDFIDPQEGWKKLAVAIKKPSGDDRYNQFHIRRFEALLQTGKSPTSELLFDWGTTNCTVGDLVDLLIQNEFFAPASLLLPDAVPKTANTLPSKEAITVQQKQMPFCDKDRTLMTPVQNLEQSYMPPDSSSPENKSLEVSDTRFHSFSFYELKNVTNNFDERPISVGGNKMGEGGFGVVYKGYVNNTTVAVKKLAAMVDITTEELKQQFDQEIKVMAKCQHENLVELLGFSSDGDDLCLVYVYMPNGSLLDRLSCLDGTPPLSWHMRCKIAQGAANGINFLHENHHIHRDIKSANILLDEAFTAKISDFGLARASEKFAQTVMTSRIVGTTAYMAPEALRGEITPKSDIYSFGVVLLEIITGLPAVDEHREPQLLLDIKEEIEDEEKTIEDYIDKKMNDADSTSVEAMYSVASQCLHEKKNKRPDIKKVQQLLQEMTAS

[8] = target: T8, WNK1 (Homo sapiens, UniProt Q9H4A3)
T8 construct: purchased Carna Biosciences

[9] = target: T9, FYN [isoform a] (Homo sapiens, UniProt P06241)
T9 construct: purchased Carna Biosciences

[10] = target: T10, FYN [isoform b] (Homo sapiens, UniProt P06241)
T10 construct: purchased Carna Biosciences

[11] = target: T11, p38γ (Homo sapiens, UniProt P53778)
T11 construct: purchased Carna Biosciences
T11 sequence (P53778 1-367): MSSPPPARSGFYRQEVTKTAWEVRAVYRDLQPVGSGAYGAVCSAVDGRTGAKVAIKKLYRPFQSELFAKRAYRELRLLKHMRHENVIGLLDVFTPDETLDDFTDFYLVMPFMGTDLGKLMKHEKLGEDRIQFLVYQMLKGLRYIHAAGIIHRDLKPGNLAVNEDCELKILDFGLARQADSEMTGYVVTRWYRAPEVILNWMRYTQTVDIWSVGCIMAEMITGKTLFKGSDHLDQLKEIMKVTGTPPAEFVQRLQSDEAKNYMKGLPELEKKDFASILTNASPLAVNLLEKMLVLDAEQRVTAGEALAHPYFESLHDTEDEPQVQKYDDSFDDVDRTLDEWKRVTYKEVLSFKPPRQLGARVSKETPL

T10 sequence (P06241 1-534 isoform P06241-2): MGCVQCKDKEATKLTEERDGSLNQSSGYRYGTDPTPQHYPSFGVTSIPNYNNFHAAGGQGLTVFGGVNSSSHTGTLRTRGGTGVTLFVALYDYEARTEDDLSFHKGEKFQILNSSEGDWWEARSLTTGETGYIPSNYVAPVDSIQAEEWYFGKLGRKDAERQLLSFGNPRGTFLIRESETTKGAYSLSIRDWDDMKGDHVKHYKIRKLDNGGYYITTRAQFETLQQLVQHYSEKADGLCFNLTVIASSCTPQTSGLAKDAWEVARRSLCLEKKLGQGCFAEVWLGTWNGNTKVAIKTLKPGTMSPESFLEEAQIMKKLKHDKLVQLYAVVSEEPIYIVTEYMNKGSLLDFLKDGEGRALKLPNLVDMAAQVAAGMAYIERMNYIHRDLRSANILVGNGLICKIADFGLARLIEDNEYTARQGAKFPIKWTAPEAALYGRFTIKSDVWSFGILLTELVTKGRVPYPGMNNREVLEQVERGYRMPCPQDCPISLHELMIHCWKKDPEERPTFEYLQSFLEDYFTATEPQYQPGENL
T4 sequence (Q9NYY3 whole entry): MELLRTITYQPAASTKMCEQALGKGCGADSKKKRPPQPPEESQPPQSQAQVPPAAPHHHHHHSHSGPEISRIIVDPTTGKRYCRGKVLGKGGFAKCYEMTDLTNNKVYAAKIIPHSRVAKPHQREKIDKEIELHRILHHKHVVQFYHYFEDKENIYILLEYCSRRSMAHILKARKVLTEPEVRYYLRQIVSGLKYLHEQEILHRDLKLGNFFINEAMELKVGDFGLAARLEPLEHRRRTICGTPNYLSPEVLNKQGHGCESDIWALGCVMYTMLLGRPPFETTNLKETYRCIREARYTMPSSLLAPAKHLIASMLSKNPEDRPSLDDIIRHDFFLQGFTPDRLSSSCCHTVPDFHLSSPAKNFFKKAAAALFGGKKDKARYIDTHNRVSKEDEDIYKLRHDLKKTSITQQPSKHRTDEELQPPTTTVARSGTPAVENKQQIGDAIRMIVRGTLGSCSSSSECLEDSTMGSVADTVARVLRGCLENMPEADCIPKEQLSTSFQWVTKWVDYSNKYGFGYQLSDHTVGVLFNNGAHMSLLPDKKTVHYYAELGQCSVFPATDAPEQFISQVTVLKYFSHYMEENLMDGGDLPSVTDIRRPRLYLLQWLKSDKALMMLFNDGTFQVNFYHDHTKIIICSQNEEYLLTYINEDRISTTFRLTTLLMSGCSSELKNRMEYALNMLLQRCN
T3 sequence (P49840 whole entry): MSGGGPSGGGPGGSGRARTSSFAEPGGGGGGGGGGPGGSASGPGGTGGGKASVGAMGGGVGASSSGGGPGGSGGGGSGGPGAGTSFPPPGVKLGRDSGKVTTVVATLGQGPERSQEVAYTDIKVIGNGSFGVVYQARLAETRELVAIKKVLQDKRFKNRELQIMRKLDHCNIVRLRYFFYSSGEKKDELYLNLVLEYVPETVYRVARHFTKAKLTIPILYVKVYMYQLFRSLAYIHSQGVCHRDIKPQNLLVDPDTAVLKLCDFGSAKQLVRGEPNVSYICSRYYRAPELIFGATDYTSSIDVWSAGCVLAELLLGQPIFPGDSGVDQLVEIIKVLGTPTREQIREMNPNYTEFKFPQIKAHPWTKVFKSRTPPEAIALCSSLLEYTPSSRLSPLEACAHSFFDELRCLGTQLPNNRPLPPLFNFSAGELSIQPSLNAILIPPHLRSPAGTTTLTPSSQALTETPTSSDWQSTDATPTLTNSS
T9 sequence (P06241 whole entry, canonical isoform): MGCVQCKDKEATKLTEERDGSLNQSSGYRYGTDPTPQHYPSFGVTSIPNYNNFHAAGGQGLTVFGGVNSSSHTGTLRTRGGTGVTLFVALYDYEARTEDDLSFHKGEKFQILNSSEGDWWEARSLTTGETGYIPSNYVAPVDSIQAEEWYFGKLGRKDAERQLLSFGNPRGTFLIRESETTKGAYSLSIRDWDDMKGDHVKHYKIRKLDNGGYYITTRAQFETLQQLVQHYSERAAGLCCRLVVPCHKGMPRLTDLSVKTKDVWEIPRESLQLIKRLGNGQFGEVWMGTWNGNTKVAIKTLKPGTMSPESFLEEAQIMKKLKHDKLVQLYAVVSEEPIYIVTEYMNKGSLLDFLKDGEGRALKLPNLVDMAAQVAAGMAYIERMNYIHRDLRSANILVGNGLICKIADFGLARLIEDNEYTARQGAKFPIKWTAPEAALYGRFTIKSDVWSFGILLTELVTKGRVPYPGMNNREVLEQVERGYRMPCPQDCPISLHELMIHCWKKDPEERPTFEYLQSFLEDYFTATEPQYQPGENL
T5 sequence (Q9H2G2 whole entry): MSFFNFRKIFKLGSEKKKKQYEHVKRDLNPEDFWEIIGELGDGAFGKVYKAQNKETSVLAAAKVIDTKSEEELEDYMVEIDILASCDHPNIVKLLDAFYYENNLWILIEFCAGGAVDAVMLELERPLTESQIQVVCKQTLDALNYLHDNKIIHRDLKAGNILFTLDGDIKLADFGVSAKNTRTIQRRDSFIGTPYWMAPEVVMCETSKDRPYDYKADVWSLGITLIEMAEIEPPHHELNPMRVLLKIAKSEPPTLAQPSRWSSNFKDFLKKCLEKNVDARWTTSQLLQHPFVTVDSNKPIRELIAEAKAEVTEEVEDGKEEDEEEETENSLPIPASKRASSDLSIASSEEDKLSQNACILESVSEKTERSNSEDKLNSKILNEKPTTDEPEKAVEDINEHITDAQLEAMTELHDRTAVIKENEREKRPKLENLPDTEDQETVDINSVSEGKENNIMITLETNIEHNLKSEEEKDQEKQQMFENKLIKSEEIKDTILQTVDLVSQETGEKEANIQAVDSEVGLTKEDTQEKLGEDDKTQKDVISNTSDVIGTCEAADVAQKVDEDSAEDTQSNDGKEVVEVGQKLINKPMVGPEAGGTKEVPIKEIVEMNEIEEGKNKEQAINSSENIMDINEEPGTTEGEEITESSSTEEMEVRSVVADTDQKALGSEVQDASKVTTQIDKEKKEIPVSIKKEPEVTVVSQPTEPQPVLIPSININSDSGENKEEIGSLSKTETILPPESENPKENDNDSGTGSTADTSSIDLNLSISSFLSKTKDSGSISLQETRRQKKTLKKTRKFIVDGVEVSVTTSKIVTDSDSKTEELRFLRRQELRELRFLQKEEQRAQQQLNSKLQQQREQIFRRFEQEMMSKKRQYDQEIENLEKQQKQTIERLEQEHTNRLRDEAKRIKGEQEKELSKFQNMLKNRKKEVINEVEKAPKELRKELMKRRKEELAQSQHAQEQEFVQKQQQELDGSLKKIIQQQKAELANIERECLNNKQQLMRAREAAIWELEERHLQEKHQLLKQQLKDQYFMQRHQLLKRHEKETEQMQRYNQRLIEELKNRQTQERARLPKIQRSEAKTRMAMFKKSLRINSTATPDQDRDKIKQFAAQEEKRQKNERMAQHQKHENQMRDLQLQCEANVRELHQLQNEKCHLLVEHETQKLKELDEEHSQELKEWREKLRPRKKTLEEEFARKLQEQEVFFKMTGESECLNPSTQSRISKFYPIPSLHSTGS

| SMILES | Percentage inhibition of kinase enzyme activity [1] [%] | Percentage inhibition of kinase enzyme activity [2] [%] | Percentage inhibition of kinase enzyme activity [3] [%] | Percentage inhibition of kinase enzyme activity [4] [%] | Percentage inhibition of kinase enzyme activity [5] [%] | Percentage inhibition of kinase enzyme activity [6] [%] | Percentage inhibition of kinase enzyme activity [7] [%] | Percentage inhibition of kinase enzyme activity [8] [%] | Percentage inhibition of kinase enzyme activity [9] [%] | Percentage inhibition of kinase enzyme activity [10] [%] | Percentage inhibition of kinase enzyme activity [11] [%] |
| --- | --- | --- | --- | --- | --- | --- | --- | --- | --- | --- | --- |
| C=CC(=O)N1CCC([C@@H]2CCNc3c(C(N)=O)c(-c4ccc(Oc5ccccc5)cc4)nn32)CC1 [zanubrutinib] | -1.86 | – | – | – | – | – | – | – | – | – | – |
| CC#CC(=O)N1CCC[C@H]1c1nc(-c2ccc(C(=O)Nc3ccccn3)cc2)c2c(N)nccn12 [acalabrutinib] | -0.59 | -3.51 | 2.47 | 2.47 | 1.61 | -4.57 | -6.55 | 5.36 | 5.84 | -1.25 | -1.74 |
| COc1ccc(F)cc1C(=O)NCc1ccc(-c2nn([C@@H](C)C(F)(F)F)c(N)c2C(N)=O)cc1 [pirtobrutinib] | -1.27 | 4.02 | -5.30 | 2.89 | -0.40 | -2.78 | -1.11 | -5.02 | 12.27 | 15.19 | -2.05 |
| O=C(c1ccc(Oc2ccccc2)cc1Cl)c1c[nH]c2ncnc(N[C@@H]3CC[C@@H](CO)OC3)c12 [nemtabrutinib] | 58.54 | 3.95 | -3.85 | 3.06 | 52.74 | -2.18 | 2.38 | 8.78 | – | – | 0.72 |
| C=CC(=O)N1CCC[C@@H](n2nc(-c3ccc(Oc4ccccc4)cc3)c3c(N)ncnc32)C1 [ibrutinib] | 49.82 | 6.70 | 2.24 | 1.72 | 12.11 | -3.54 | -5.09 | 2.30 | 92.75 | 86.77 | 3.51 |
